Test results taken from article PMC2858699, “Proteolysis of Human Thrombin Generates Novel Host Defense Peptides” (PLoS Pathogens, 2010).
In brackets after ≈: the same amount, converted by molar mass. Where a SMILES comes first, the peptide text is derived from it.

Legend:
[1] = system: E. coli; test: Radial diffusion assay (RDA), low-salt conditions; assay type: cell-based; conditions: 6 µl per well (3.6 µg protein), not digested with neutrophil elastase
Experimental: Figure 1 Generation of antimicrobial peptides by degradation of prothrombin and thrombin. (A) Degradation of the proteins was performed at 37°C for the indicated time periods. RDA was performed in low-salt conditions using E. coli as test organism. Each 4 mm-diameter well was loaded with 6 µl of the solution (corresponding to 3.6 µg protein). The bar diagrams indicate the diameter of the zones of clearance obtained (in mm). The inset visualizes the results obtained with prothrombin. C, buffer; NE, neutrophil elastase only. LL-37 (100 µM) was included for comparison. (B) Intact prothrombin (PT) and thrombin (T), and cleavage products from the different incubations with neutrophil elastase (NE, indicated above) were analyzed by SDS-PAGE (16.5% Tris-Tricine gel). The gels are overloaded (12 µg) in order to visualize generation of fragments of low molecular masses. Rightmost two lanes show PT and T proteins at 2 µg.
Figure 2 Activities of peptides derived from prothrombin. (A) Sequence of prothrombin and overlapping peptides (indicated by numbers). In addition to the regular overlapping peptides, peptide regions of high net charge, and/or content of predicted helical regions (Agadir; http://www.embl-heidelberg.de/Services/serrano/agadir/agadir-start.html) were selected. […] (B) Overlapping peptides of prothrombin were analyzed for antimicrobial activities against E. coli. […]

[2] = system: E. coli ATCC 25922; assay type: cell-based
Experimental: (§1) MIC assay was carried out by a microtiter broth dilution method as previously described in the NCSLA guidelines. Hemolysis, MTT, and LDH assays were performed as previously described (See Text S1).
(§2) MIC assay was carried out by a microtiter broth dilution method as previously described in the NCSLA guidelines (Wiegand, I., Hilpert, K. & Hancock, R.E. Agar and broth dilution methods to determine the minimal inhibitory concentration (MIC) of antimicrobial substances. Nat Protoc 3, 163-175 (2008)). In brief, fresh overnight colonies were suspended to a turbidity of 0.5 units and further diluted in Mueller-Hinton broth (Becton Dickinson). […] Ten µl of each concentration was added to each corresponding well of a 96-well microtiter plate (polypropylene, Costar Corp.) and 90 µl of bacteria (1x10^5) in MH medium added. The plate was incubated at 37 °C for 16-18 h. MIC was taken as the lowest concentration where no visual growth of bacteria was detected.
(§3) Table S2. […] The analysis was performed as described in Wiegand et al. and according to NCSLA guidelines. Additional clinical isolates were obtained from the Department of Bacteriology, Lund University Hospital. P. aeruginosa, E. coli and E. faecalis isolates were initially derived from patients with chronic ulcers, S. aureus from patients with atopic dermatitis. The S. pyogenes strain AP1 was from the WHO Collaborating Center for References and Research on Streptococci (Prague, Czech Republic).

[3] = system: E. coli Clinical isolate 37.4; assay type: cell-based
Experimental: as §1, §2, §3

[4] = system: E. coli Clinical isolate 47.1; assay type: cell-based
Experimental: as §1, §2, §3

[5] = system: E. coli Clinical isolate 49.1; assay type: cell-based
Experimental: as §1, §2, §3

[6] = system: E. faecalis Clinical isolate 2374; assay type: cell-based
Experimental: as §1, §2, §3

[7] = system: P. aeruginosa ATCC 27853; assay type: cell-based
Experimental: as §1, §2, §3

[8] = system: P. aeruginosa Clinical isolate 10.5; assay type: cell-based
Experimental: as §1, §2, §3

[9] = system: P. aeruginosa Clinical isolate 13.2; assay type: cell-based
Experimental: as §1, §2, §3

[10] = system: P. aeruginosa Clinical isolate 15159; assay type: cell-based
Experimental: as §1, §2, §3

[11] = system: P. aeruginosa Clinical isolate 18488; assay type: cell-based
Experimental: as §1, §2, §3

[12] = system: P. aeruginosa Clinical isolate 23.1; assay type: cell-based
Experimental: as §1, §2, §3

[13] = system: P. aeruginosa Clinical isolate 27.1; assay type: cell-based
Experimental: as §1, §2, §3

[14] = system: P. aeruginosa Clinical isolate 51.1; assay type: cell-based
Experimental: as §1, §2, §3

[15] = system: P. aeruginosa Clinical isolate 62.1; assay type: cell-based
Experimental: as §1, §2, §3

[16] = system: S. aureus ATCC 29213; assay type: cell-based
Experimental: as §1, §2, §3

[17] = system: S. aureus Clinical isolate 1086; assay type: cell-based
Experimental: as §1, §2, §3

[18] = system: S. aureus Clinical isolate 1088; assay type: cell-based
Experimental: as §1, §2, §3

[19] = system: S. aureus Clinical isolate 1090; assay type: cell-based
Experimental: as §1, §2, §3

[20] = system: S. aureus Clinical isolate 13430; assay type: cell-based
Experimental: as §1, §2, §3

[21] = system: S. aureus Clinical isolate 14312; assay type: cell-based
Experimental: as §1, §2, §3

[22] = system: S. aureus Clinical isolate 16065; assay type: cell-based
Experimental: as §1, §2, §3

[23] = system: S. aureus Clinical isolate 18319; assay type: cell-based
Experimental: as §1, §2, §3

[24] = system: S. aureus Clinical isolate 18800; assay type: cell-based
Experimental: as §1, §2, §3

[25] = system: S. aureus FDA 486; assay type: cell-based
Experimental: as §1, §2, §3

[26] = system: S. pyogenes AP1; assay type: cell-based
Experimental: as §1, §2, §3

[27] = system: E. coli ATCC 25922; test: Viable count assay; assay type: cell-based; conditions: E. coli ATCC 25922 2×10^6 cfu/ml, 50 µl, 10 mM Tris pH 7.4 with 5 mM glucose, 37°C 2 h; 3 and 6 µM
Experimental: 2×10^6 cfu/ml of bacteria were incubated in 50 µl with proteins and peptides at a concentration of 3 and 6 µM, respectively.
E. coli ATCC 25922 bacteria were grown to mid-logarithmic phase in Todd-Hewitt (TH) medium. Bacteria were washed and re-suspended in 10 mM Tris, pH 7.4 containing 5 mM glucose. […] Serial dilutions of the incubation mixtures were plated on TH agar, followed by incubation at 37°C overnight and cfu determination.

[28] = Liposome leakage assay (carboxyfluorescein release)
Experimental: (E) Effects of the indicated peptides on liposome leakage. The membrane permeabilizing effect was recorded by measuring fluorescence release of carboxyfluorescein from PA (negatively charged) liposomes. The experiments were performed in 10 mM Tris-buffer, in absence and presence of 0.15 M NaCl. Values represents mean of triplicate samples.
Dry lipid films were prepared by dissolving either dioleoylphosphatidylethanolamine (Avanti Polar Lipids, Alabaster, AL) (70 mol%) and dioleoylphosphatidylglycerol (30 mol%) in chloroform, and then removing the solvent by evaporation under vacuum overnight. Subsequently, buffer solution containing 10 mM Tris, pH 7.4, either with or without additional 150 mM NaCl, was added together with 0.1 M carboxyfluorescein (CF) (Sigma). After hydration, the lipid mixture was subjected to eight freeze-thaw cycles consisting of freezing in liquid nitrogen and heating to 60°C. Unilamellar liposomes with a diameter of about 130 nm (as found with cryo-TEM; results not shown) were generated by multiple extrusions through polycarbonate filters (pore size 100 nm) mounted in a LipoFast miniextruder (Avestin). Untrapped carboxyfluorescein was then removed by filtration through two subsequent Sephadex G-50 columns with the relevant Tris buffer as eluent. […] The CF release was monitored by fluorescence at 520 nm from a liposome dispersion (10 mM lipid in 10 mM Tris pH 7.4). […]

thrombin
antimicrobial activity in RDA, intact proteins [1]: inactive

CC[C@H](C)[C@H](N)C(=O)N[C@@H](CC(C)C)C(=O)N[C@@H](CCCNC(=N)N)C(=O)N[C@@H](Cc1c[nH]c2ccccc12)C(=O)N1CCC[C@H]1C(=O)N[C@@H](Cc1c[nH]c2ccccc12)C(=O)N[C@@H](Cc1c[nH]c2ccccc12)C(=O)N1CCC[C@H]1C(=O)N[C@@H](Cc1c[nH]c2ccccc12)C(=O)N[C@@H](CCCNC(=N)N)C(=O)N[C@@H](CCCNC(=N)N)C(=O)N[C@@H](CCCCN)C(N)=O [Omiganan] (H-ILRWPWWPWRRK-NH2)
MIC [2]: 20 µM (≈ 35.6 µg/mL) | MIC [3]: 20 µM (≈ 35.6 µg/mL) | MIC [4]: 20 µM (≈ 35.6 µg/mL) | MIC [5]: 10 µM (≈ 17.8 µg/mL) | MIC [6]: 160 µM (≈ 285 µg/mL) | MIC [7]: 160 µM (≈ 285 µg/mL) | MIC [8]: 40 µM (≈ 71.2 µg/mL) | MIC [9]: 40 µM (≈ 71.2 µg/mL) | MIC [10]: 20 µM (≈ 35.6 µg/mL) | MIC [11]: 20 µM (≈ 35.6 µg/mL) | MIC [12]: 40 µM (≈ 71.2 µg/mL) | MIC [13]: >160 µM | MIC [14]: 80 µM (≈ 142 µg/mL) | MIC [15]: 20 µM (≈ 35.6 µg/mL) | MIC [16]: 10 µM (≈ 17.8 µg/mL) | MIC [17]: 10 µM (≈ 17.8 µg/mL) | MIC [18]: 20 µM (≈ 35.6 µg/mL) | MIC [19]: 80 µM (≈ 142 µg/mL) | MIC [20]: 10 µM (≈ 17.8 µg/mL) | MIC [21]: 20 µM (≈ 35.6 µg/mL) | MIC [22]: 5 µM (≈ 8.9 µg/mL) | MIC [23]: 20 µM (≈ 35.6 µg/mL) | MIC [24]: 2.5 µM (≈ 4.45 µg/mL) | MIC [25]: 20 µM (≈ 35.6 µg/mL) | MIC [26]: 5 µM (≈ 8.9 µg/mL)

VFRLKKWIQKVIDQFGE [VFR17]
antibacterial activity in viable count assay [27]: significant antibacterial activity | leakage of liposomes (carboxyfluorescein release) ([28]; negatively charged liposomes, 10 mM Tris pH 7.4, absence and presence of 0.15 M NaCl, triplicate): induced leakage of liposomes | time to reach ∼80% of the maximum leakage ([28]; peptide at 1 µM, data not shown): ≤ 200 s
